Experimental findings from patent US12173018B2, “Penicillin-binding protein inhibitors” (priority 2018, dated 2024) are described below.

The test system of test [1] is engineered strain of Escherichia coli harboring CTX-M15. The test can be described thus: microbe, parasite or virus in culture. It counts as cell-based. The following applies: Escherichia coli, read-out: Microbiological Activity (MIC in mg/L), E. coli DH5α/pLBII-CTX-M15, engineered strain producing CTX-M15.
The subject of test [2] is P. aeruginosa (ΔmexAB-oprM). The test can be described thus: microbe, parasite or virus in culture. The note with it: Pseudomonas aeruginosa, read-out: MIC P. aeruginosa ΔmexAB-OprM. The class given is cell-based. In a few lines: (§1)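 Broth microdilution MICs followed CLSI methods in cation-supplemented Mueller-Hinton broth, with 2-fold serial compound dilutions. Log-phase cultures grown 3–5 h were added to a starting inoculum of 5×10^5 CFU/mL and incubated 16–20 h at 37 °C. The MIC was read visually as the lowest concentration with no growth.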

The test system of a further test is P. aeruginosa ATCC 35151. The test can be described thus: microbe, parasite or virus in culture. The class given is cell-based. The following applies: Pseudomonas aeruginosa, ATCC35151; hyper-permeable P. aeruginosa ATCC 35151; read-out: MIC P. aeruginosa ATCC 35151. In a few lines: as §1
The test system of another test is P. aeruginosa PAO1. In words: Broth microdilution MIC, P. aeruginosa PAO1. The class given is cell-based. The following applies: Pseudomonas aeruginosa, PAO1, read-out: MIC P. aeruginosa PAO1. The procedure:
To determine the ability of test compounds to potentiate the inhibition of the growth of bacterial strains, classic cell based broth microdilution minimum inhibitory concentration (MIC) assays were employed. MIC assays are performed according to CLSI methods except where otherwise noted (CLSI, 2011 and CLSI, 2009). The reference type strain E. coli ATCC 25922, the wild-type parent strain E. coli AG100, the hyper-permeable E. coli 901C and E. coli D22 and the E. coli AG100A strain lacking the acrAB efflux pump encoding genes were used to determine the ability of the PBP inhibitors to penetrate the outer membrane of gram-negative bacteria and inhibit bacterial growth. […] The P. aeruginosa PAO1, P. aeruginosa ATCC 27853 and A. baumannii ATCC 19606, along with the hyper-permeable P. aeruginosa ATCC 35151 and an engineered efflux pump-compromised strain of P. aeruginosa (ΔmexAB-oprM) were used to determine the ability of PBP inhibitors to penetrate the outer membrane of P. aeruginosa and A. baumannii and assess antibacterial activity against these important gram-negative organisms.
Briefly, cryo-preserved bacterial cultures of challenge strains are streaked for isolation on appropriate agar medium, in this case Mueller Hinton II agar. Following incubation to allow growth of the colonies, plates are sealed with parafilm and stored refrigerated for up to two weeks. For preparation of assay inoculum and to ensure low variability, at least 5 colonies are picked from the agar plates with an inoculating loop and aseptically transferred to a culture tube containing 3 mL of Mueller-Hinton Broth (supplemented with divalent cations to required levels based on Manufacturers' certification). The broth culture is grown for 3-5 hours at 37° C. with shaking at 200 rpm. Meanwhile, 2-fold serial dilutions of test compounds are conducted in a 96 well plate with a final volume of 75 μL per well at 2-fold the final desired concentration. After the dilution plates are set up the growing cultures are then diluted in a cuvette containing MH II broth and the optical density is measured at 600 nm. The Inoculum is diluted such that 75 μL of this culture in Mueller-Hinton Broth results in a starting bacterial concentration of 5×10^5 CFU/mL when added to the dilution plates. The plates are incubated for 16-20 hours at 37° C. The MIC values are read visually as the lowest concentration well with no bacterial growth.
(Dilution methods test growth across graded concentrations, often in twofold steps.)

A further test relates to K. pneumoniae SI-117. In words: microbe, parasite or virus in culture. The class given is cell-based. The note with it: Klebsiella pneumoniae, SI117, read-out: MIC K. pneumoniae SI-117. In a few lines: as §1
The subject of a further test is E. coli 901C. In words: microbe, parasite or virus in culture. The class given is cell-based. The note with it: Escherichia coli; hyper-permeable E. coli 901C, broth microdilution; read-out: MIC E. coli 901C. Put shortly: as §1
A further test has as its system E. coli D22. In words: microbe, parasite or virus in culture. The following applies: Escherichia coli; hyper-permeable E. coli D22, broth microdilution; read-out: MIC E. coli D22. The class given is cell-based. Put shortly: as §1
A further test deals with E. coli AG100A. In words: microbe, parasite or virus in culture. It counts as cell-based. The note with it: Escherichia coli, read-out: MIC E. coli AG100A. In a few lines:
as §1

For the next test, the system named is K. pneumoniae UMM. In words: microbe, parasite or virus in culture. The class given is cell-based. The note with it: Klebsiella pneumoniae; K. pneumoniae UMM producing SHV-5 and KPC-2; read-out: MIC K. pneumoniae UMM. In a few lines: as §1
Another test relates to E. coli ATCC 25922. In words: Broth microdilution MIC, E. coli ATCC 25922. It counts as cell-based. The following applies: Escherichia coli, ATCC25922; E. coli ATCC 25922, broth microdilution; read-out: MIC E. coli 25922. In a few lines:
as §1

A further test addresses E. coli PBP3 (Escherichia coli (strain K12), UniProt P0AD68). In words: E. coli PBP3 Bocillin-FL fluorescence polarization competition binding assay. In a few lines: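 Purified E. coli PBP (1.5 μM final) competed with inhibitor (0-1000 μM) for Bocillin-FL (0.1 μM final) in 50 mM Hepes pH 8.0, 300 mM NaCl, 5% glycerol. Fluorescence polarization (ex 490/em 520 nm) was read continuously for 60 min after Bocillin-FL addition. EC50 was the concentration that reduced Bocillin-FL binding by 50%.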
In general terms: Polarisation of emitted light reports the rotation of a fluorescent probe.

Another test deals with E. coli AG100. The test can be described thus: Broth microdilution MIC, E. coli AG100 (wild-type parent). The class given is cell-based. The note with it: Escherichia coli; wild-type parent E. coli AG100, broth microdilution; read-out: MIC E. coli AG100. Put shortly: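 Broth microdilution in cation-supplemented Mueller-Hinton broth, 2-fold serial compound dilutions, inoculum 5×10^5 CFU/mL from 3-5 h log culture.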

The subject of the next test is K. pneumoniae 848844. The test can be described thus: microbe, parasite or virus in culture. The class given is cell-based, Klebsiella pneumoniae. The following applies: Klebsiella pneumoniae; K. pneumoniae 848844 producing SHV-11 and KPC-2; read-out: MIC K. pneumoniae 848844. Put shortly: as §1
Another test concerns the target E. coli PBP1b (Escherichia coli (strain K12), UniProt P02919). The test can be described thus: Radioligand competition binding assay with 14C-labeled boronic acid probe, PBP1b. The text has this:
To determine the ability of boronic acid-based test PBP inhibitors to bind Penicillin Binding Proteins (PBPs), a radio-labelled boronic acid PBP inhibitor
[drawing 751] was used in competition binding assays to determine boronic acid PBP inhibitor binding to PBP1a or PBP1b from Escherichia coli. PBP1a and PBP1b were purified as described previously (Bertsche, U.; et al., J. Biol. Chem. 2005, 280 (45), 38096-38101; Born, P.; et al., J. Biol. Chem. 2006. 281 (37), 26985-26993). To establish assay conditions for competition binding, an enzyme titration/saturation binding experiment was performed. Saturation binding was performed in a buffer comprised of 20 mM Tris (pH 7.5), 500 mM NaCl and 0.1% (v/v) TritonX-100, with PBP1a/PBP1b at a final concentration of 0.1 μM and Compound A at final concentrations ranging from 0-100 μM. Mixtures were incubated for 60 minutes, then applied to Zeba Spin Desalting columns or plates (ThermoFisher Scientific) and centrifuged at 1000-1500×g for 2 minutes. The flow through, containing PBP bound with Compound A, was recovered and 100 μL mixed with 5 mL of UltimaGold liquid scintillation cocktail (Perkin Elmer), and the radioactivity counted using a Beckman Coulter LS 6500 Multipurpose scintillation counter. PBP binding of Compound A approached saturation at 20 μM of ^14C-labeled probe. The competition binding assay was validated using the beta-lactam ampicillin, with Compound A at a final concentration of 20 μM, PBP1a/PBP1b at a final concentration of 0.1 μM. PBP1a/PBP1b was incubated with ampicillin in a 96-well microplate for 60 minutes, then Compound A was added and the mixtures incubated for an additional 60 minutes. The mixtures were then applied to Zeba Spin desalting plates and centrifuged at 1000×g for 2 minutes. The flow through was recovered and 100 μl mixed with 5 ml of UltimaGold liquid scintillation cocktail and the radioactivity counted. […] Binding assays with boronic acid PBP inhibitors were performed in an identical fashion. The potency of boronic acid PBP inhibitors was reported as the EC50 value.
Background: In a radioligand displacement assay an active substance lowers the binding of a labelled ligand.

The mark [3] stands for this setting: fluorescence polarization competition binding with Bocillin-FL, read-out: E. coli K12 PBP3 Potency.

Converted amounts (≈) assume the structure as drawn. Like-named read-outs stand apart in the source and are kept apart here.

Sequence of E. coli PBP1b (P02919 whole entry): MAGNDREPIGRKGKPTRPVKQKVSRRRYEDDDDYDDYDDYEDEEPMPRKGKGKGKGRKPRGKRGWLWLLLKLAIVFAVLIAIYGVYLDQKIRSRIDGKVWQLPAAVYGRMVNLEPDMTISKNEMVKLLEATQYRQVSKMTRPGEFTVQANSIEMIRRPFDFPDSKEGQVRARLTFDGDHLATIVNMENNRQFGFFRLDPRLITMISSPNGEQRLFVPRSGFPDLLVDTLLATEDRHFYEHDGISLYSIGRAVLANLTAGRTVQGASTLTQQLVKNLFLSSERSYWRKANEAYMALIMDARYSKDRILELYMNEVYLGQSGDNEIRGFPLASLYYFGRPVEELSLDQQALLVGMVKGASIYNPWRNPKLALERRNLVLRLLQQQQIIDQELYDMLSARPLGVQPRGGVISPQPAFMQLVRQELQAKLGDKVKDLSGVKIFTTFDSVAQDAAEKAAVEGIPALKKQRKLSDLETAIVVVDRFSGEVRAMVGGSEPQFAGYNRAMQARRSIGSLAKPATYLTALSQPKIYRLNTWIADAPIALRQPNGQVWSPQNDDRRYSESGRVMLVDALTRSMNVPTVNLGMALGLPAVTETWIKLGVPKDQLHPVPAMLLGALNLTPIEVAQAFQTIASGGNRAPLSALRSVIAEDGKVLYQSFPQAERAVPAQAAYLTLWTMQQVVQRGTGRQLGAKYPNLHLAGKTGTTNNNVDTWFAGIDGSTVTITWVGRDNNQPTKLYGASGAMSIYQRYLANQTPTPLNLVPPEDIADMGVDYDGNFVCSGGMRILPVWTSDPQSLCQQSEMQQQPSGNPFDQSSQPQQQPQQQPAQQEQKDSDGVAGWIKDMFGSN
Sequence of E. coli PBP3 (P0AD68 whole entry): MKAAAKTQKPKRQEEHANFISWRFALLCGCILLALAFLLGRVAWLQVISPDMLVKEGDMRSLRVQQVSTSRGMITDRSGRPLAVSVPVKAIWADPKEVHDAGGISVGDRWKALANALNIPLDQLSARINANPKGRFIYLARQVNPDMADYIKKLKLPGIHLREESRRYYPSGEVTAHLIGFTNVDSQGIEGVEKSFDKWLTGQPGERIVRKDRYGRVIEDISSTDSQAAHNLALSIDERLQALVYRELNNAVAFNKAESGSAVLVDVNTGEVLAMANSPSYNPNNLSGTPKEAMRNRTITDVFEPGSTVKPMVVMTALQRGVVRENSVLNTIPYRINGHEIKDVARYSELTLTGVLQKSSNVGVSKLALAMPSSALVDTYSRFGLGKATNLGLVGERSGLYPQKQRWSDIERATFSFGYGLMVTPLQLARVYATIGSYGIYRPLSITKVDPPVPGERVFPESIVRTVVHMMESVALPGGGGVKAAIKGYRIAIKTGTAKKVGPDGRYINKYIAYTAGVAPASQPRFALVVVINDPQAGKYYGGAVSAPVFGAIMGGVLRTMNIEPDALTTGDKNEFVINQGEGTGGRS

`CCN1CCN(C(=O)NC(C(=O)N[C@H]2Cc3cccc(C(=O)O)c3OB2O)c2ccc(OC)nc2Cl)C(=O)C1=O` (stereo partly drawn) [Example 65, (3R)-3-(2-(2-chloro-6-methoxypyridin-3-yl)-2-(4-ethyl-2,3-dioxopiperazine-1-carboxamido)acetamido)-2-hydroxy-3,4-dihydro-2H-benzo[e][1,2]oxaborinine-8-carboxylic acid]: the MIC in [1] was 128 to 256 mg/L (≈ 223 to 446 µM); in [2] it was 32 to 64 µg/mL; with P. aeruginosa ATCC 35151, 8 to 16 µg/mL; in the test on P. aeruginosa PAO1 it was more than 128 µg/mL.

Regarding `CCN1CCN(C(=O)NC(C(=O)N[C@H]2Cc3cccc(C(=O)O)c3OB2O)c2cccnc2)C(=O)C1=O` (stereo partly drawn) [Example 105, (3R)-3-(2-(4-ethyl-2,3-dioxopiperazine-1-carboxamido)-2-(pyridin-3-yl)acetamido)-2-hydroxy-3,4-dihydro-2H-benzo[e][1,2]oxaborinine-8-carboxylic acid], the MIC is 32 to 64 mg/L (≈ 62.8 to 126 µM) in test [1]; more than 128 µg/mL with K. pneumoniae SI-117; less than 0.25 µg/mL with E. coli 901C; 8 to 16 µg/mL in the test with E. coli D22; 2 to 4 µg/mL with E. coli AG100A; 32 to 64 µg/mL with K. pneumoniae UMM. Also, the MIC was 32 to 64 µg/mL in the test on E. coli ATCC 25922, 32 to 64 µg/mL in the test on E. coli AG100 and more than 128 µg/mL in the test on K. pneumoniae 848844. The EC50 on E. coli PBP3 was 30 to 500 µM; on E. coli PBP1b, more than 100 µM.

Consider `CCN1CCN(C(=O)NC(C(=O)N[C@H]2Cc3cccc(C(=O)O)c3OB2O)c2ccc[n+](CC(=O)[O-])c2)C(=O)C1=O` (stereo partly drawn) [Example 108, 2-(3-(2-(((R)-8-carboxy-2-hydroxy-3,4-dihydro-2H-benzo[e][1,2]oxaborinin-3-yl)amino)-1-(4-ethyl-2,3-dioxopiperazine-1-carboxamido)-2-oxoethyl)pyridin-1-ium-1-yl)acetate], for which the MIC in test [1] was 32 to 64 mg/L (≈ 56.4 to 113 µM); in the test with K. pneumoniae SI-117, more than 128 µg/mL; with E. coli 901C it was 8 to 16 µg/mL; with E. coli D22, 8 to 16 µg/mL; with E. coli AG100A, 32 to 64 µg/mL; in the test on K. pneumoniae UMM, 32 to 64 µg/mL. Also, the values for the MIC with E. coli ATCC 25922, in the test with E. coli AG100 and with K. pneumoniae 848844 were 32 to 64 µg/mL, more than 128 µg/mL and more than 128 µg/mL, respectively. The EC50 lay in the range of 30 to 500 µM at E. coli PBP3 and 10 to 100 µM at E. coli PBP1b.

For `CCN1CCN(C(=O)NC(C(=O)N[C@H]2Cc3cccc(C(=O)O)c3OB2O)c2ncccn2)C(=O)C1=O` (stereo partly drawn) [Example 111, (3R)-3-(2-(4-ethyl-2,3-dioxopiperazine-1-carboxamido)-2-(pyrimidin-2-yl)acetamido)-2-hydroxy-3,4-dihydro-2H-benzo[e][1,2]oxaborinine-8-carboxylic acid], the MIC in [1] was 32 to 64 mg/L (≈ 62.7 to 125 µM); in the test on K. pneumoniae SI-117 it was more than 128 µg/mL; in the test on E. coli 901C it was 0.5 to 1 µg/mL; in the test with E. coli D22, 8 to 16 µg/mL; in the test on E. coli AG100A it was 2 to 4 µg/mL; with K. pneumoniae UMM it was 32 to 64 µg/mL. Also, the MIC was 32 to 64 µg/mL in the test on E. coli ATCC 25922, 32 to 64 µg/mL in the test on E. coli AG100 and more than 128 µg/mL with K. pneumoniae 848844. For the same compound, the figures for the EC50 on E. coli PBP3 and on E. coli PBP1b were 30 to 500 µM and more than 100 µM, respectively.

For the compound `CCN1CCN(C(=O)NC(C(=O)N[C@H]2Cc3cccc(C(=O)O)c3OB2O)C2CCCC2)C(=O)C1=O` (stereo partly drawn) [Example 116, (3R)-3-(2-cyclopentyl-2-(4-ethyl-2,3-dioxopiperazine-1-carboxamido)acetamido)-2-hydroxy-3,4-dihydro-2H-benzo[e][1,2]oxaborinine-8-carboxylic acid], in [1], the MIC lay in the range of 128 to 256 mg/L (≈ 256 to 512 µM). Besides, the EC50 was less than 30 µM at E. coli PBP3 (setting [3]) and 10 to 100 µM at E. coli PBP1b.

In the case of `CCN1CCN(C(=O)NC(C(=O)N[C@H]2Cc3cccc(C(=O)O)c3OB2O)c2ccc(S(C)(=O)=O)cc2)C(=O)C1=O` (stereo partly drawn) [Example 118, (3R)-3-(2-(4-ethyl-2,3-dioxopiperazine-1-carboxamido)-2-(4-(methylsulfonyl)phenyl)acetamido)-2-hydroxy-3,4-dihydro-2H-benzo[e][1,2]oxaborinine-8-carboxylic acid], in test [1], the MIC was in the range of 128 to 256 mg/L (≈ 218 to 437 µM). Moreover, the EC50 at E. coli PBP3 (setting [3]) was less than 30 µM; on E. coli PBP1b, more than 100 µM.

In the case of `CS(=O)(=O)c1ccc(C(NC(=O)N2CCN(CCF)C(=O)C2=O)C(=O)N[C@H]2Cc3cccc(C(=O)O)c3OB2O)cc1` (stereo partly drawn) [Example 119, (3R)-3-(2-(4-(2-fluoroethyl)-2,3-dioxopiperazine-1-carboxamido)-2-(4-(methylsulfonyl)phenyl)acetamido)-2-hydroxy-3,4-dihydro-2H-benzo[e][1,2]oxaborinine-8-carboxylic acid], the MIC in test [1] was in the range of 32 to 64 mg/L (≈ 52.9 to 106 µM). The figures for the EC50 at E. coli PBP3 and on E. coli PBP1b were 30 to 500 µM and more than 100 µM, respectively.
